Reference: US10131652B2, “Pyrimidinyloxy benzene derivatives as herbicides” (E. I. DU PONT DE NEMOURS AND COMPANY, priority 2014, dated 2018)
Read-outs that look alike come from different tables or passages of the source.

Columns and labels:
Assay in all cases: Test B pre-/postemergence plant response
Type in all cases: in vivo
[1] = test system: barnyardgrass (Echinochloa crus-galli); details: 1000 g ai/ha, 0 to 100 scale (0 no effect, 100 complete control); for pest or weed control at 1000 g/ha: Echinochloa crus-galli, 240 h, read-out: Plant response rating, Barnyardgrass
Description: (§1) Seeds of plant species selected from bamyardgrass (Echinochloa crus-galli), kochia (Kochia scoparia), ragweed (common ragweed, Ambrosia elatior), Italian ryegrass (Lolium multiflorum), large (Lg) crabgrass (Digitaria sanguinalis), giant foxtail (Setaria faberii), momingglory (Ipomoea spp.), pigweed (Amaranthus retroflexus), velvetleaf (Abutilon theophrasti), wheat (Triticum aestivum), and corn (Zea mays) were planted into a blend of loam soil and sand and treated preemergence with a directed soil spray using test chemicals formulated in a non-phytotoxic solvent mixture which included a surfactant. At the same time, plants selected from these crop and weed species and also blackgrass (Alopecurus myosuroides), and galium (catchweed bedstraw, Galium aparine) were planted in pots containing the same blend of loam soil and sand and treated with postemergence applications of test chemicals formulated in the same manner. Plants ranged in height from 2 to 10 cm and were in the one- to two-leaf stage for the postemergence treatment. Treated plants and untreated controls were maintained in a greenhouse for approximately 10 days, after which time all treated plants were compared to untreated controls and visually evaluated for injury. Plant response ratings, summarized in Table B, are based on a 0 to 100 scale where 0 is no effect and 100 is complete control. A dash (-) response means no test result.

corn (Zea mays) = details: 1000 g ai/ha, 0 to 100 scale (0 no effect, 100 complete control); for Corn plant response rating (crop injury, 0 = no effect, 100 = complete kill) at 1000 g/ha: Zea mays, 240 h
Description: as §1

[2] = test system: giant foxtail (Setaria faberii); details: 1000 g ai/ha, 0 to 100 scale (0 no effect, 100 complete control); for pest or weed control at 1000 g/ha: Setaria faberi, 240 h, read-out: Plant response rating, Foxtail, Giant
Description: as §1

[3] = test system: large (Lg) crabgrass (Digitaria sanguinalis); details: 1000 g ai/ha, 0 to 100 scale (0 no effect, 100 complete control); for pest or weed control at 1000 g/ha: Digitaria sanguinalis, 240 h, read-out: Plant response rating, Crabgrass, Large
Description: as §1

[4] = test system: morningglory (Ipomoea spp.); details: 1000 g ai/ha, 0 to 100 scale (0 no effect, 100 complete control); for pest or weed control at 1000 g/ha: Ipomoea, 240 h, read-out: Plant response rating, Morningglory
Description: as §1

[5] = test system: pigweed (Amaranthus retroflexus); details: 1000 g ai/ha, 0 to 100 scale (0 no effect, 100 complete control); for pest or weed control at 1000 g/ha: Amaranthus retroflexus, 240 h, read-out: Plant response rating, Pigweed
Description: as §1

[6] = test system: velvetleaf (Abutilon theophrasti); details: 1000 g ai/ha, 0 to 100 scale (0 no effect, 100 complete control); for pest or weed control at 1000 g/ha: Abutilon theophrasti, 240 h, read-out: Plant response rating, Velvetleaf
Description: as §1

[7] = test system: wheat (Triticum aestivum); details: 1000 g ai/ha, 0 to 100 scale (0 no effect, 100 complete control); for plant injury at 1000 g/ha: Triticum aestivum, 240 h, read-out: Plant response rating, Wheat
Description: as §1

Compound | pest or weed control at 1000 g/ha ([1]; post-emergence, Postemergence) [%] | pest or weed control at 1000 g/ha ([1]; pre-emergence, Preemergence) [%] | Corn plant response rating (crop injury, 0 = no effect, 100 = complete kill) at 1000 g/ha (corn (Zea mays); post-emergence, Postemergence) [%] | Corn plant response rating (crop injury, 0 = no effect, 100 = complete kill) at 1000 g/ha (corn (Zea mays); pre-emergence, Preemergence) [%] | pest or weed control at 1000 g/ha ([2]; post-emergence, Postemergence) [%] | Plant response rating, Barnyardgrass ([1]; Postemergence) | Plant response rating, Barnyardgrass ([1]; Preemergence) | Plant response rating, Corn (corn (Zea mays); Postemergence) | Plant response rating, Corn (corn (Zea mays); Preemergence) | Plant response rating, Foxtail, Giant ([2]; Postemergence) | Plant response rating, Foxtail, Giant ([2]; Preemergence) | Plant response rating, Crabgrass, Large ([3]; Postemergence) | Plant response rating, Crabgrass, Large ([3]; Preemergence) | Plant response rating, Morningglory ([4]; Postemergence) | Plant response rating, Morningglory ([4]; Preemergence) | Plant response rating, Pigweed ([5]; Postemergence) | Plant response rating, Pigweed ([5]; Preemergence) | Plant response rating, Velvetleaf ([6]; Postemergence) | Plant response rating, Wheat ([7]; Postemergence) | Plant response rating, Wheat ([7]; Preemergence) | further results
OCc1cc(-c2ccccc2Oc2ncc(Cl)cn2)no1 [Compound 31, 3-[2-[(5-chloro-2-pyrimidinyl)oxy]phenyl]-5-isoxazolemethanol] | 10 | 0 | 0 | 0 | 30 |  |  |  |  |  |  |  |  |  |  |  |  |  |  |  | pest or weed control at 1000 g/ha ([2]; pre-emergence, Preemergence): 30%; pest or weed control at 1000 g/ha ([3]; post-emergence, Postemergence): 50%; pest or weed control at 1000 g/ha ([3]; pre-emergence, Preemergence): 80%; pest or weed control at 1000 g/ha ([4]; post-emergence, Postemergence): 30%; pest or weed control at 1000 g/ha ([4]; pre-emergence, Preemergence): 0%; pest or weed control at 1000 g/ha ([5]; post-emergence, Postemergence): 30%; pest or weed control at 1000 g/ha ([5]; pre-emergence, Preemergence): 0%; pest or weed control at 1000 g/ha ([6]; post-emergence, Postemergence): 30%; pest or weed control at 1000 g/ha ([6]; pre-emergence, Preemergence): 0%; plant injury at 1000 g/ha ([7]; post-emergence, Postemergence): 0%; plant injury at 1000 g/ha ([7]; pre-emergence, Preemergence): 0%
O=Cc1cc(-c2ccccc2Oc2ncc(Cl)cn2)no1 [Compound 33, 3-[2-[(5-chloro-2-pyrimidinyl)oxy]phenyl]-5-isoxazolecarboxaldehyde] | 0 | 0 | 0 | 0 | 10 |  |  |  |  |  |  |  |  |  |  |  |  |  |  |  | pest or weed control at 1000 g/ha ([2]; pre-emergence, Preemergence): 10%; pest or weed control at 1000 g/ha ([3]; post-emergence, Postemergence): 10%; pest or weed control at 1000 g/ha ([3]; pre-emergence, Preemergence): 80%; pest or weed control at 1000 g/ha ([4]; post-emergence, Postemergence): 10%; pest or weed control at 1000 g/ha ([4]; pre-emergence, Preemergence): 0%; pest or weed control at 1000 g/ha ([5]; post-emergence, Postemergence): 10%; pest or weed control at 1000 g/ha ([5]; pre-emergence, Preemergence): 40%; pest or weed control at 1000 g/ha ([6]; post-emergence, Postemergence): 0%; pest or weed control at 1000 g/ha ([6]; pre-emergence, Preemergence): 0%; plant injury at 1000 g/ha ([7]; post-emergence, Postemergence): 0%; plant injury at 1000 g/ha ([7]; pre-emergence, Preemergence): 0%
ClCc1cc(-c2ccccc2Oc2ncc(Cl)cn2)no1 [Compound 34] |  |  |  |  |  | 0 | 0 | 0 | 0 | 0 | 10 | 10 | 10 | 0 | 0 | 40 | 100 | 20 | 0 | 0 | Plant response rating, Velvetleaf ([6]; Preemergence): 10
N#CCc1cc(-c2ccccc2Oc2ncc(Cl)cn2)no1 [Compound 36] |  |  |  |  |  | 90 | 30 | 50 | 0 | 90 | 90 | 80 | 100 | 20 | 10 | 90 | 100 | 100 | 50 | 0 | 
Clc1cnc(Oc2ccccc2-c2ncco2)nc1 [Compound 61] |  |  |  |  |  | 10 | 20 | 0 | 0 | 0 | 40 | 0 | 50 | 10 | 0 | 60 | 90 | 70 | 0 | 0 | Plant response rating, Velvetleaf ([6]; Preemergence): 50
